Reference: the kinase profiling compilation of Christmann-Franck et al. (2016)
Several values for one entry are separate records, joined by “and”; a condition that tells them apart may be missing. Equal values may be shown once.

Columns and labels:
Assay in all cases: radiometric filter-binding kinase assay, Kinase HotSpot
Settings in all cases: compound 0.5 µM; ATP 10 µM
FGFR2 (human) = FGFR2 (human) (UniProt P21802)
MARK3 (human) = MARK3 (human) (UniProt P27448)
EPHB4 (human) = EPHB4 (human) (UniProt P54760)
MAP3K8 (human) = MAP3K8 (human) (UniProt P41279)
SIK2 (human) = SIK2 (human) (UniProt Q9H0K1)
RPS6KA1 KD1 KD2 (human) = RPS6KA1 KD1 KD2 (human) (UniProt Q15418)
RPS6KA1 KD1 KD2 (human), sequence (Q15418 whole entry, looked up): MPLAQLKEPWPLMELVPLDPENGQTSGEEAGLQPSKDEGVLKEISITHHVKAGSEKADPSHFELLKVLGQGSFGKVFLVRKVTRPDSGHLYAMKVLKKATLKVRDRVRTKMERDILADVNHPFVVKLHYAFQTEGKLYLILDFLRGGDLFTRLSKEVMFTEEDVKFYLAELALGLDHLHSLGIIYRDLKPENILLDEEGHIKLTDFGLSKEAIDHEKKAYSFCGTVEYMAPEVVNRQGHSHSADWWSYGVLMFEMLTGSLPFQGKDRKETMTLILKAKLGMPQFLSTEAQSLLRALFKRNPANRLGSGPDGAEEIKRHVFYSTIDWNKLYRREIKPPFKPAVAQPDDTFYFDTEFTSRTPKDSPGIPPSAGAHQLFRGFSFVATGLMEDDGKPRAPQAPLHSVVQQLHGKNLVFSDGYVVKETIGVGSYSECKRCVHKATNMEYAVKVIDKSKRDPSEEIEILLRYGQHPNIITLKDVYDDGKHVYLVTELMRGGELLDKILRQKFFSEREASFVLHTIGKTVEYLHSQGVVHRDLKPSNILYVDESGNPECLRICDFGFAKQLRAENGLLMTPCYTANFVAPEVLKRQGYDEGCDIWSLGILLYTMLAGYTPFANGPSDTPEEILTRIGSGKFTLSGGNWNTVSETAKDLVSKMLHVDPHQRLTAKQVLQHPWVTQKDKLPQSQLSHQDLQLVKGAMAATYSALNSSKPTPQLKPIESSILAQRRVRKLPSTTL

SGK2 (human) = SGK2 (human) (UniProt Q9HBY8)
PHKG1 (human) = PHKG1 (human) (UniProt Q16816)
PHKG1 (human), sequence (Q16816 whole entry, looked up): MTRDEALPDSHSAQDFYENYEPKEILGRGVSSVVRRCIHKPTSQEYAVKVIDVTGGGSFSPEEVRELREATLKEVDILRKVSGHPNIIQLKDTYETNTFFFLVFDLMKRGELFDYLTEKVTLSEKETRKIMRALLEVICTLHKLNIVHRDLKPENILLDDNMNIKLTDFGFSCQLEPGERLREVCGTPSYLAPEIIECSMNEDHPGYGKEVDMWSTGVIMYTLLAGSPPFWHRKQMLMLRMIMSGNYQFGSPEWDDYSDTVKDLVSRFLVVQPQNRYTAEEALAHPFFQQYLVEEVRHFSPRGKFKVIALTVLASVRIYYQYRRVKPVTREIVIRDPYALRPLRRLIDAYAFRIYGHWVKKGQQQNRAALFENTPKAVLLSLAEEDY

FGFR3 (human) = FGFR3 (human) (UniProt P22607)
FGFR3 (human), sequence (P22607 whole entry, looked up): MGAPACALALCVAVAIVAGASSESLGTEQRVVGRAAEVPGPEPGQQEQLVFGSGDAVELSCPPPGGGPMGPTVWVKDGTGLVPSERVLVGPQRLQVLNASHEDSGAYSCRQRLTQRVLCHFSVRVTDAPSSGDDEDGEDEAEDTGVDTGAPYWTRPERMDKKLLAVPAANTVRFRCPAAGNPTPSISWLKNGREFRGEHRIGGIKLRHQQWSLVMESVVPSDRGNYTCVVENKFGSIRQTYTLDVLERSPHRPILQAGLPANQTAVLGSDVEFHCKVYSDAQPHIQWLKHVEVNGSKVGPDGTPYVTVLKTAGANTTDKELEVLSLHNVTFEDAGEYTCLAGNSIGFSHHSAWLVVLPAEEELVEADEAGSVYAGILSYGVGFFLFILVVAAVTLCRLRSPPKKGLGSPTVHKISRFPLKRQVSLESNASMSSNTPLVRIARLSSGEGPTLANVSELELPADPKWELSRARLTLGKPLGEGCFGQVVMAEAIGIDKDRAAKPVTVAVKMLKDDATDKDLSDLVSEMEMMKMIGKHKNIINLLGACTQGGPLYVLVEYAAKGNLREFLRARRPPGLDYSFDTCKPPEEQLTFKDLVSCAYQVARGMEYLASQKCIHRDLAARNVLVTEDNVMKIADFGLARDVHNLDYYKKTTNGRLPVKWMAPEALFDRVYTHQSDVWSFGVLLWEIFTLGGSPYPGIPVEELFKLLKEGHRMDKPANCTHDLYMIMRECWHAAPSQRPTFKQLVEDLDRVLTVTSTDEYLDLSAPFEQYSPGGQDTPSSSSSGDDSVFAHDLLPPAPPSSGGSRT

ACVR1B (human) = ACVR1B (human) (UniProt P36896)
WEE1 (human) = WEE1 (human) (UniProt P30291)
LYN (human) = LYN (human) (UniProt P07948)
WNK3 (human) = WNK3 (human) (UniProt Q9BYP7)
SGK3 (human) = SGK3 (human) (UniProt Q96BR1)
CSNK1D (human) = CSNK1D (human) (UniProt P48730)
FGFR1 (human) = FGFR1 (human) (UniProt P11362)
AKT3 (human) = AKT3 (human) (UniProt Q9Y243)
PRKCZ (human) = PRKCZ (human) (UniProt Q05513)
CAMKK1 (human) = CAMKK1 (human) (UniProt Q8N5S9)
PRKD1 (human) = PRKD1 (human) (UniProt Q15139)
STK16 (human) = STK16 (human) (UniProt O75716)
STK16 (human), sequence (O75716 whole entry, looked up): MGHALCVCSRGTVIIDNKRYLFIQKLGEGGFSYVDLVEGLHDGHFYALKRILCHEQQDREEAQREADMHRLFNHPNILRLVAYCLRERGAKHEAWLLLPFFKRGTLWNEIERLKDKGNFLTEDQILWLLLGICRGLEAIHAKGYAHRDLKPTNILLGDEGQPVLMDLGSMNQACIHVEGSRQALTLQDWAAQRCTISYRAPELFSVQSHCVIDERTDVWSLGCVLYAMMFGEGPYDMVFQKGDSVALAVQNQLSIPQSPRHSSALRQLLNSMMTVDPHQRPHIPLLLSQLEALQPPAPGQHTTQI

STK4 (human) = STK4 (human) (UniProt Q13043)
STK4 (human), sequence (Q13043 whole entry, looked up): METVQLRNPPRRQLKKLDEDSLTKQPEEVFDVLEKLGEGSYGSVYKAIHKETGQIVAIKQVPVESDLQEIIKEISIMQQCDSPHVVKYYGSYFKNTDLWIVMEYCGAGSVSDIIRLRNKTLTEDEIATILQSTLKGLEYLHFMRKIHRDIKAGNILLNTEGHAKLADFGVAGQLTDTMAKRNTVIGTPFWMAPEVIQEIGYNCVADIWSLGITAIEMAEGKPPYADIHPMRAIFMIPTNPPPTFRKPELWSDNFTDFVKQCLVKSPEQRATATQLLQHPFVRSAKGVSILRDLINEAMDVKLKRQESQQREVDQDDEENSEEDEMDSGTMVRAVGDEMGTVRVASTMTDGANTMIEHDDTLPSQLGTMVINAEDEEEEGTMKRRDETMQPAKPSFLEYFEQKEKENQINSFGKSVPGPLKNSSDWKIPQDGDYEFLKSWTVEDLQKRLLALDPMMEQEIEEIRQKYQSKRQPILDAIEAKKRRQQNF

MAPK11 (human) = MAPK11 (human) (UniProt Q15759)
LCK (human) = LCK (human) (UniProt P06239)
LCK (human), sequence (P06239 whole entry, looked up): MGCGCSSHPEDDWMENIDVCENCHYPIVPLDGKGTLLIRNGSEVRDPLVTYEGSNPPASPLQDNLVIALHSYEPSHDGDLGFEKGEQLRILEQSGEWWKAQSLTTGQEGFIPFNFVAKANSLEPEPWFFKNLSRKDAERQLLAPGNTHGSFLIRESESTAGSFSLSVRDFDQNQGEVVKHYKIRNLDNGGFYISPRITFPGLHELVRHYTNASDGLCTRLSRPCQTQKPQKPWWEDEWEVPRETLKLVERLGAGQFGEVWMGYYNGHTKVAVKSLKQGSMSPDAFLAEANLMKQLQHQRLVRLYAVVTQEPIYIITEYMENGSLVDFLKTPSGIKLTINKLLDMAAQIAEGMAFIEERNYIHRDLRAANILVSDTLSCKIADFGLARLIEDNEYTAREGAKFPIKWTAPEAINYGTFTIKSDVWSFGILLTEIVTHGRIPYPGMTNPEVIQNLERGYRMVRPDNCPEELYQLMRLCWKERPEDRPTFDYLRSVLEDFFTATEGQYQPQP

PRKG1 (human) = PRKG1 (human) (UniProt Q13976)
ITK (human) = ITK (human) (UniProt Q08881)
ITK (human), sequence (Q08881 whole entry, looked up): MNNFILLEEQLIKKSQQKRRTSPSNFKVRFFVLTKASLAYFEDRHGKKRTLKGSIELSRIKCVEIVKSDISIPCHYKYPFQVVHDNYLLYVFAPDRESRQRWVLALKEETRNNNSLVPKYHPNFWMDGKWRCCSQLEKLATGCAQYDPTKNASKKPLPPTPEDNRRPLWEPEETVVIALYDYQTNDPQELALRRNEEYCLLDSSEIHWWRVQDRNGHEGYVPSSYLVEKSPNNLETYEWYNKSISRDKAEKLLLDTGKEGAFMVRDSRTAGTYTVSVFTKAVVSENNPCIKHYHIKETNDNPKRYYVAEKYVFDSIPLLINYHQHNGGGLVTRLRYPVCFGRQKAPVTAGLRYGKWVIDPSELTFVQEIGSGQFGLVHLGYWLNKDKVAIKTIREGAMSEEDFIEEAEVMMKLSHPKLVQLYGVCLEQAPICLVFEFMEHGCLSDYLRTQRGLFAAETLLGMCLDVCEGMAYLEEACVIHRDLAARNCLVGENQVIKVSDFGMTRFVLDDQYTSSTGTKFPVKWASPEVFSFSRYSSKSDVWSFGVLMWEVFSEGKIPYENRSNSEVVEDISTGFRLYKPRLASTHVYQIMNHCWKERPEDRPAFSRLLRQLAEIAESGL

PLK1 (human) = PLK1 (human) (UniProt P53350)
CSF1R (human) = CSF1R (human) (UniProt P07333)
RPS6KA6 KD1 KD2 (human) = RPS6KA6 KD1 KD2 (human) (UniProt Q9UK32)
ERBB2 (human) = ERBB2 (human) (UniProt P04626)
PRKCH (human) = PRKCH (human) (UniProt P24723)
PRKCH (human), sequence (P24723 whole entry, looked up): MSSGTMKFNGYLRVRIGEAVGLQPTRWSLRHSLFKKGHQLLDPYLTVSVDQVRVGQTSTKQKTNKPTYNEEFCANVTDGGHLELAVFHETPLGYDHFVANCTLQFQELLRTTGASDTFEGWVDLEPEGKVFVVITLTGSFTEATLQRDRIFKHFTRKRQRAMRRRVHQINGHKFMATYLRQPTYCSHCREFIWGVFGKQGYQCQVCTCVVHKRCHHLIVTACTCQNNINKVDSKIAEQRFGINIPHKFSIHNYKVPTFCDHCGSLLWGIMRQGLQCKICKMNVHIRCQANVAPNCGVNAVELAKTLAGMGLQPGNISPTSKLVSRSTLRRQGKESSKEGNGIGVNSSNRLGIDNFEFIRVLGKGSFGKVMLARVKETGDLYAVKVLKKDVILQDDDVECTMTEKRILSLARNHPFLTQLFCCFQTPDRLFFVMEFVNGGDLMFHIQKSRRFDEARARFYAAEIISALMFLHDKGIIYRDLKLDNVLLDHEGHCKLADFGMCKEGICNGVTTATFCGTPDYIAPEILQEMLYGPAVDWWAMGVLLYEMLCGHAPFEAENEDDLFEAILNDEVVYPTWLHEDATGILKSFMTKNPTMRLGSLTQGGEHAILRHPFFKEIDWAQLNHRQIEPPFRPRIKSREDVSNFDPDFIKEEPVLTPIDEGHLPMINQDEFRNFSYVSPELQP

DYRK1A (human) = DYRK1A (human) (UniProt Q13627)
ROCK2 (human) = ROCK2 (human) (UniProt O75116)
OXSR1 (human) = OXSR1 (human) (UniProt O95747)
MST4 (human) = MST4 (human) (UniProt Q9P289)
MARK4 (human) = MARK4 (human) (UniProt Q96L34)
TEC (human) = TEC (human) (UniProt P42680)
PTK2B (human) = PTK2B (human) (UniProt Q14289)
MAPK3 (human) = MAPK3 (human) (UniProt P27361)
BMX (human) = BMX (human) (UniProt P51813)
CLK4 (human) = CLK4 (human) (UniProt Q9HAZ1)
CLK4 (human), sequence (Q9HAZ1 whole entry, looked up): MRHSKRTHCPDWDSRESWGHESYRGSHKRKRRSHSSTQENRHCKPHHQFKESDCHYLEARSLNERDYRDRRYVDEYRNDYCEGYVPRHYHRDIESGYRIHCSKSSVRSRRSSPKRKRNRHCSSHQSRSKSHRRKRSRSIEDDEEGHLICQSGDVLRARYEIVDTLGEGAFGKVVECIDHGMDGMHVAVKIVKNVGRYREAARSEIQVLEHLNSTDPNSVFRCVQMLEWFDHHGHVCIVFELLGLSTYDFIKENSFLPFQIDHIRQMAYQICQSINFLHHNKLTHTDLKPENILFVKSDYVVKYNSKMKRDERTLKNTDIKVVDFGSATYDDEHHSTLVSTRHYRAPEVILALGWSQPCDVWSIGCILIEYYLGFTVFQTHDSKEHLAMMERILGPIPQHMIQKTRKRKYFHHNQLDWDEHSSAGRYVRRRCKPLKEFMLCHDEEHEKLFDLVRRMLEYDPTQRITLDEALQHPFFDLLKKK

CDK5 CDK5R1 p35 (human) = CDK5 CDK5R1 p35 (human) (UniProt Q00535+Q15078)

Nc1ncnc2c1c(-c1ccc(Oc3ccccc3)cc1)cn2C1CCCC1
residual activity (FGFR2 (human)): 78%
residual activity (MARK3 (human)): 89.8%
residual activity (EPHB4 (human)): 98.3%
residual activity (MAP3K8 (human)): 83.3%
residual activity (SIK2 (human)): 101%
residual activity (RPS6KA1 KD1 KD2 (human)): 94.2%
residual activity (SGK2 (human)): 95.4%
residual activity (PHKG1 (human)): 91.1%
residual activity (FGFR3 (human)): 77.5%
residual activity (ACVR1B (human)): 93.9%
residual activity (WEE1 (human)): 77.8%
residual activity (LYN (human)): 3.49% and 5.13%
residual activity (WNK3 (human)): 85.2%
residual activity (SGK3 (human)): 112%
residual activity (CSNK1D (human)): 85.1%
residual activity (FGFR1 (human)): 77.4%
residual activity (AKT3 (human)): 98.2%
residual activity (PRKCZ (human)): 107%
residual activity (CAMKK1 (human)): 99.1%
residual activity (PRKD1 (human)): 96.2%
residual activity (STK16 (human)): 90.7%
residual activity (STK4 (human)): 77.8%
residual activity (MAPK11 (human)): 106%
residual activity (LCK (human)): 1.12%
residual activity (PRKG1 (human)): 103% and 96.4%
residual activity (ITK (human)): 87.1%
residual activity (PLK1 (human)): 100%
residual activity (CSF1R (human)): 61.3%
residual activity (RPS6KA6 KD1 KD2 (human)): 96.6%
residual activity (ERBB2 (human)): 101%
residual activity (PRKCH (human)): 92.6%
residual activity (DYRK1A (human)): 99.1%
residual activity (ROCK2 (human)): 90.5%
residual activity (OXSR1 (human)): 93.5%
residual activity (MST4 (human)): 95.2%
residual activity (MARK4 (human)): 85.2%
residual activity (TEC (human)): 8.33%
residual activity (PTK2B (human)): 96.7%
residual activity (MAPK3 (human)): 108%
residual activity (BMX (human)): 10.1%
residual activity (CLK4 (human)): 98%

CCCC(=O)Oc1ccc2[nH]c(C(=O)c3cc4ccccc4[nH]3)cc2c1
residual activity (FGFR2 (human)): 100%
residual activity (MARK3 (human)): 92.1%
residual activity (EPHB4 (human)): 101%
residual activity (MAP3K8 (human)): 97.6%
residual activity (SIK2 (human)): 97.6%
residual activity (RPS6KA1 KD1 KD2 (human)): 91.3%
residual activity (SGK2 (human)): 99.4%
residual activity (PHKG1 (human)): 93.7%
residual activity (FGFR3 (human)): 95.2%
residual activity (ACVR1B (human)): 98.9%
residual activity (WEE1 (human)): 85.8%
residual activity (LYN (human)): 103% and 98.7%
residual activity (WNK3 (human)): 101%
residual activity (SGK3 (human)): 102%
residual activity (CSNK1D (human)): 96.4%
residual activity (CDK5 CDK5R1 p35 (human)): 97.5%
residual activity (FGFR1 (human)): 96%
residual activity (AKT3 (human)): 101%
residual activity (PRKCZ (human)): 98.3%
residual activity (CAMKK1 (human)): 106%
residual activity (PRKD1 (human)): 88.7%
residual activity (STK16 (human)): 100%
residual activity (STK4 (human)): 96.8%
residual activity (MAPK11 (human)): 87.7%
residual activity (LCK (human)): 94%
residual activity (PRKG1 (human)): 104% and 95.1%
residual activity (ITK (human)): 82%
residual activity (PLK1 (human)): 101%
residual activity (CSF1R (human)): 103%
residual activity (RPS6KA6 KD1 KD2 (human)): 95.4%
residual activity (ERBB2 (human)): 85.9%
residual activity (PRKCH (human)): 93.6%
residual activity (ROCK2 (human)): 103%
residual activity (OXSR1 (human)): 92.4%
residual activity (MST4 (human)): 94.8%
residual activity (MARK4 (human)): 84.1%
residual activity (TEC (human)): 97.8%
residual activity (PTK2B (human)): 87.6%
residual activity (MAPK3 (human)): 87.9%
residual activity (BMX (human)): 97.4%
residual activity (CLK4 (human)): 90.2%

COc1cc2ncnc(Nc3cccc(Cl)c3)c2cc1OC
residual activity (FGFR2 (human)): 97.5%
residual activity (MARK3 (human)): 89.8%
residual activity (EPHB4 (human)): 59.7%
residual activity (MAP3K8 (human)): 104%
residual activity (SIK2 (human)): 98.7%
residual activity (RPS6KA1 KD1 KD2 (human)): 87.3%
residual activity (SGK2 (human)): 97.8%
residual activity (PHKG1 (human)): 88.9%
residual activity (FGFR3 (human)): 88.5%
residual activity (ACVR1B (human)): 98%
residual activity (WEE1 (human)): 92.4%
residual activity (WNK3 (human)): 97.8%
residual activity (SGK3 (human)): 90.9%
residual activity (CSNK1D (human)): 100%
residual activity (CDK5 CDK5R1 p35 (human)): 91%
residual activity (FGFR1 (human)): 84.9%
residual activity (AKT3 (human)): 98.3%
residual activity (PRKCZ (human)): 102%
residual activity (CAMKK1 (human)): 92.2%
residual activity (PRKD1 (human)): 92.3%
residual activity (STK16 (human)): 101%
residual activity (STK4 (human)): 92%
residual activity (MAPK11 (human)): 97.5%
residual activity (LCK (human)): 74.9%
residual activity (PRKG1 (human)): 93.8% and 95.2%
residual activity (ITK (human)): 93.8%
residual activity (PLK1 (human)): 105%
residual activity (CSF1R (human)): 98.2%
residual activity (RPS6KA6 KD1 KD2 (human)): 90.5%
residual activity (ERBB2 (human)): 22.5%
residual activity (PRKCH (human)): 104%
residual activity (DYRK1A (human)): 90.7%
residual activity (ROCK2 (human)): 92.6%
residual activity (OXSR1 (human)): 92%
residual activity (MST4 (human)): 108%
residual activity (MARK4 (human)): 98.5%
residual activity (TEC (human)): 126%
residual activity (PTK2B (human)): 85.3%
residual activity (MAPK3 (human)): 96.4%
residual activity (BMX (human)): 88.6%
residual activity (CLK4 (human)): 98.2%

O=C1NC(=O)c2c1c1c3ccccc3n3c1c1c2c2ccccc2n1C1CCC3O1
residual activity (FGFR2 (human)): 34.1%
residual activity (MARK3 (human)): 8.53%
residual activity (EPHB4 (human)): 75.4%
residual activity (MAP3K8 (human)): 94.6%
residual activity (SIK2 (human)): 33.9%
residual activity (RPS6KA1 KD1 KD2 (human)): 1.58%
residual activity (SGK2 (human)): 18.6%
residual activity (PHKG1 (human)): 2.75%
residual activity (FGFR3 (human)): 36.3%
residual activity (ACVR1B (human)): 113%
residual activity (WEE1 (human)): 16.9%
residual activity (WNK3 (human)): 86%
residual activity (SGK3 (human)): 71.7%
residual activity (CSNK1D (human)): 93.8%
residual activity (CDK5 CDK5R1 p35 (human)): 23.3%
residual activity (FGFR1 (human)): 29.1%
residual activity (AKT3 (human)): 27.1%
residual activity (PRKCZ (human)): 87.4%
residual activity (CAMKK1 (human)): 27.2%
residual activity (PRKD1 (human)): 1.89%
residual activity (STK16 (human)): 58.1%
residual activity (STK4 (human)): 3.56%
residual activity (MAPK11 (human)): 108%
residual activity (LCK (human)): 36.2%
residual activity (PRKG1 (human)): 35.7% and 41.3%
residual activity (ITK (human)): 8.29%
residual activity (PLK1 (human)): 50.2%
residual activity (CSF1R (human)): 29.3%
residual activity (RPS6KA6 KD1 KD2 (human)): 1.08%
residual activity (ERBB2 (human)): 98.4%
residual activity (PRKCH (human)): 47.6%
residual activity (DYRK1A (human)): 8.74%
residual activity (ROCK2 (human)): 73.7%
residual activity (OXSR1 (human)): 92.4%
residual activity (MST4 (human)): 20.5%
residual activity (MARK4 (human)): 5.31%
residual activity (TEC (human)): 142%
residual activity (PTK2B (human)): 41.5%
residual activity (MAPK3 (human)): 102%
residual activity (BMX (human)): 27.5%
residual activity (CLK4 (human)): 20.3%
